Measured values reported in the supplement of paper PMC10307832.

Key:
Experiment in all cases: relative viability (nuclei count vs DMSO), 5 days (fraction); higher = more cells survive
Serdemetan + Trametinib = compound: c1ccc2c(CCNc3ccc(Nc4ccncc4)cc3)c[nH]c2c1 [Serdemetan] + CC(=O)Nc1cccc(-n2c(=O)n(C3CC3)c(=O)c3c(Nc4ccc(I)cc4F)n(C)c(=O)c(C)c32)c1 [Trametinib] (partner 0.02 µM)
In short: (§1)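 Medians of duplicate plates are given as relative viability. That measure is the nuclei count in treated wells divided by the count in vehicle wells. Counts were taken on 4× images of lung cancer cell lines in 1536-well plates, 5 days after pin-tool dosing the day after seeding with one drug alone or a fixed anchor-drug dose plus five library-drug doses (not always all listed) in √10 steps.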

Serdemetan + Foretinib = compound: c1ccc2c(CCNc3ccc(Nc4ccncc4)cc3)c[nH]c2c1 [Serdemetan] + COc1cc2c(Oc3ccc(NC(=O)C4(C(=O)Nc5ccc(F)cc5)CC4)cc3F)ccnc2cc1OCCCN1CCOCC1 [Foretinib] (partner 0.25 µM)
In short: as §1

Selisistat + Pemetrexed = compound: C1CC(C2=C(C1)C3=C(N2)C=CC(=C3)Cl)C(=O)N [Selisistat] + Nc1nc2[nH]cc(CCc3ccc(C(=O)N[C@@H](CCC(=O)O)C(=O)O)cc3)c2c(=O)[nH]1 [Pemetrexed] (partner 0.2 µM)
In short: as §1

Serdemetan + Pemetrexed = compound: c1ccc2c(CCNc3ccc(Nc4ccncc4)cc3)c[nH]c2c1 [Serdemetan] + Nc1nc2[nH]cc(CCc3ccc(C(=O)N[C@@H](CCC(=O)O)C(=O)O)cc3)c2c(=O)[nH]1 [Pemetrexed] (partner 0.2 µM)
In short: as §1

Cell Line	relative viability (Serdemetan + Trametinib; first compound 0.04 µM)	relative viability (Serdemetan + Trametinib; first compound 0.1265 µM)	relative viability (Serdemetan + Trametinib; first compound 0.4 µM)	relative viability (Serdemetan + Trametinib; first compound 1.265 µM)	relative viability (Serdemetan + Trametinib; first compound 4 µM)	relative viability (Serdemetan + Foretinib; first compound 0.04 µM)	relative viability (Serdemetan + Foretinib; first compound 0.1265 µM)	relative viability (Serdemetan + Foretinib; first compound 0.4 µM)	relative viability (Serdemetan + Foretinib; first compound 1.265 µM)	relative viability (Serdemetan + Foretinib; first compound 4 µM)	relative viability (Selisistat + Pemetrexed; first compound 0.4 µM)	relative viability (Selisistat + Pemetrexed; first compound 1.265 µM)	relative viability (Selisistat + Pemetrexed; first compound 4 µM)	relative viability (Selisistat + Pemetrexed; first compound 12.65 µM)	relative viability (Selisistat + Pemetrexed; first compound 40 µM)	relative viability (Serdemetan + Pemetrexed; first compound 0.04 µM)	relative viability (Serdemetan + Pemetrexed; first compound 0.1265 µM)	relative viability (Serdemetan + Pemetrexed; first compound 0.4 µM)	relative viability (Serdemetan + Pemetrexed; first compound 1.265 µM)	relative viability (Serdemetan + Pemetrexed; first compound 4 µM)
NCI-H1437	0.466	0.527	0.526	0.372	0.424	1.31	1.19	1.27	1.08	0.963	0.321	0.328	0.321	0.28	0.299	0.287	0.327	0.316	0.264	0.252
NCI-H2342	0.818	0.84	1.12	0.789	0.669	1.22	1	0.882	0.504	0.592	0.806	0.756	0.677	0.77	0.769	0.789	0.752	0.835	0.516	0.641
ChaGo-K-1	0.875	0.805	0.602	0.266	0.293	0.9	0.703	0.566	0.335	0.296	0.237	0.247	0.257	0.36	0.231	0.277	0.261	0.372	0.257	0.254
NCI-H650	0.891	0.937	0.986	0.903	0.612	0.986	1.01	1.08	0.936	0.777	0.961	0.907	1.06	0.921	1.18	0.895	0.903	0.992	0.812	0.87
COR-L23	0.616	0.606	0.617	0.502	0.449	0.989	1.01	1.07	0.847	0.843	0.182	0.212	0.193	0.19	0.2	0.206	0.208	0.213	0.192	0.186
COR-L 105	0.435	0.482	0.366	0.487	0.491	0.979	0.866	0.9	0.839	0.772	1.16	1.07	1.16	0.869	1.1	1.06	0.991	0.948	1.14	0.967
LK-2	0.697	0.79	0.809	0.752	0.757	1.29	1.13	1.47	1.16	0.41	0.271	0.32	0.232	0.265	0.252	0.261	0.206	0.225	0.265	0.241
201T	0.769	0.687	0.736	0.653	0.631	1.14	1.13	1.02	0.636	0.73	0.325	0.299	0.364	0.343	0.324	0.306	0.287	0.29	0.332	0.353
NCI-H596	0.894	0.883	0.618	0.526	0.517	0.87	0.703	0.684	0.355	0.402	0.514	0.546	0.485	0.475	0.478	0.45	0.486	0.515	0.463	0.492
H3255	0.618	0.561		0.464	0.516	1.02	0.845	0.833	0.727	0.708	0.556	0.556	0.528	0.552	0.526	0.594	0.462	0.541	0.539	0.572
NCI-H647	0.482	0.475	0.558	0.361	0.304	1.2	1.15	1.1	1.17	0.801	0.165	0.203	0.193	0.174	0.178	0.164	0.172	0.175	0.179	0.137
NCI-H2023	0.616	0.538	0.522	0.223	0.298	0.804	0.795	0.689	0.653	0.267	0.239	0.259	0.258	0.203	0.236	0.213	0.223	0.227	0.206	0.217
NCI-H23	0.354	0.399	0.426		0.363	0.891	1.01	0.831	0.791	0.706	0.649	0.742		0.619	0.595	0.649	0.789	0.722		0.763
NCI-H1944	0.424	0.39	0.332	0.274	0.278	0.832	0.836	0.828	0.406	0.392	0.634	0.575	0.458	0.674	0.584	0.581	0.599	0.741	0.469	0.476
NCI-H1793	0.447	0.375	0.346	0.227	0.267	0.663	0.716	0.446	0.363	0.245	1.06	0.824		1.03	0.867	0.864	0.831	0.616	0.419	0.431
NCI-H520	0.632	0.65	0.623	0.57	0.428	0.668	0.737	0.874		0.511	0.776	0.676	0.647	0.668	0.644	0.712	0.68	0.753	0.674	0.542
